Where “and” joins values, the source holds several entries; their conditions need not be identical. Equal values may be shown once.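 Where inhibition never reached the appropriate level, the endpoint shown equals the highest concentration tested. Otherwise, values were interpolated linearly from a five-concentration, 48-hour dose response in 96-well plates. GI50 marks 50% less growth. TGI marks complete inhibition of growth.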
Assays:
Assay in all cases: growth of human tumour cells (NCI), 48 h
TK-10 renal = system: TK-10 renal
UACC-62 melanoma = system: UACC-62 melanoma
HOP-62 NSCLC = system: HOP-62 NSCLC
HOP-92 NSCLC = system: HOP-92 NSCLC
OVCAR-4 ovarian = system: OVCAR-4 ovarian
ACHN renal = system: ACHN renal
SW-620 colon = system: SW-620 colon
SR leukemia = system: SR leukemia
CCRF-CEM leukemia = system: CCRF-CEM leukemia
HT29 colon = system: HT29 colon

SMILES	GI50 (TK-10 renal) [µM]	TGI (TK-10 renal) [µM]	GI50 (UACC-62 melanoma) [µM]	TGI (UACC-62 melanoma) [µM]	GI50 (HOP-62 NSCLC) [µM]	TGI (HOP-62 NSCLC) [µM]	GI50 (HOP-92 NSCLC)	TGI (HOP-92 NSCLC) [µM]	GI50 (OVCAR-4 ovarian) [µM]	TGI (OVCAR-4 ovarian) [µM]	GI50 (ACHN renal) [µM]	TGI (ACHN renal) [µM]	GI50 (SW-620 colon) [µM]	TGI (SW-620 colon) [µM]	GI50 (SR leukemia) [µM]	TGI (SR leukemia) [µM]	GI50 (CCRF-CEM leukemia) [µM]	TGI (CCRF-CEM leukemia) [µM]	GI50 (HT29 colon) [µM]	TGI (HT29 colon)
CC1(C)OC[C@@H]([C@@]2(CO[Si](C)(C)C(C)(C)C)CC=CC(=O)O2)O1	18.3	40.7	19	44.6	31	53.1	14.1 µM	43.4	30.7	> 100	22.4	51.7	28.3	69.8	19	59.9	26.2	> 100	34.5	> 100 µM
CC(C)(C)C(=O)Nc1ccccc1I(=O)=O	> 100	> 100	> 100	> 100	–	–	> 100 µM	> 100	> 100	> 100	> 100	> 100	> 100	> 100	26	> 100	> 100	> 100	> 100	> 100 µM
COc1cc(Cl)cc(-c2nn(C(=O)NCCN3CCN(C)CC3)cc2-c2ccncc2)c1	3.67	> 100	4.95	20.3	5.87	44.5	2.83 µM	26.2	4.35	> 100	4.16	> 100	33.1	> 100	29.8	> 100	43	> 100	3.32	72.1 µM
COc1ccc2c(c1)nc(N)c1c3cc(OC)c(OC)cc3cn21	3.48	20.8	< 0.01	21.7	–	16.9	5.09 µM	23.9	0.238	17.8	< 0.01	16.3	< 0.01	19.8	< 0.01	5.04	0.0101	11	–	11.2 µM
O=[N+]([O-])c1ccc(-c2nc(N(CCO)CCO)c3ccccc3n2)o1	0.286	–	0.196	0.477	0.145	0.671	0.247 µM	0.831	0.208	1.8	0.159	0.631	0.265	2.55	0.0881	–	1.14	64.1	0.184	3.07 µM
S=c1[nH]c(=S)c2sc(=S)n(-c3ccccc3)c2[nH]1	–	> 100	–	> 100	–	> 100	–	> 100	–	> 100	–	> 100	–	> 100	–	> 100	–	> 100	–	> 100 µM
OC(C1=C/C(=C\c2ccncc2)c2ccccc21)c1ccncc1 (stereo not drawn)	–	32.3	–	24	–	31.6	–	49.7	–	> 57.6	–	53.4	–	> 94.3	–	29.1	–	45.9	–	32.4 µM
N#CC1=C(N)N=C(N2CCCCC2)C(C#N)C12Nc1ccccc1S2 (stereo not drawn)	29.6	> 100	16.9	49.1	27.7	> 100	26.9 µM	> 100	37.9	> 100	27.1	76.4	38.4	> 100	> 100	> 100	–	–	29.8	> 100 µM
COc1ccc(/C=C\c2cc(OC)c(OC)c(OC)c2)cc1OC(=O)C(N)CCC(=O)O (stereo not drawn)	–	> 100	0.000597	> 100	–	> 100	0.00298 µM and 0.000791 µM	0.0086	–	> 100	–	–	0.000594	> 100	0.000532	–	0.000576	> 100	–	> 37.9 µM and 46.2 µM
O=C(O)c1c2c(c(C(=O)O)c3ccccc13)-c1ccccc1-2	–	> 100	–	65.9	–	> 100	–	71.9	–	–	–	> 100	–	> 100	–	> 100	–	> 100	–	> 100 µM
Cc1nc2c(=O)[nH]c(=O)n(C)c2[nH]c1=O	–	> 100	–	> 100	–	> 100	–	> 100	–	> 100	–	> 100	–	> 100	–	> 100	–	–	–	> 100 µM
COC(=O)/C=C(C)/C=C/c1cc(C(C)=O)c(C)o1	–	–	–	> 100	–	> 100	–	> 100	–	> 100	–	> 100	–	> 100	–	> 100	–	> 100	–	> 100 µM
COC(=O)COc1ccc(/C=C2\N=C(c3ccccc3)N(c3cc(C(F)(F)F)ccc3Cl)C2=O)cc1	> 100	> 100	> 100	> 100	64.9	> 100	75.9 µM	> 100	54.8	> 100	> 100	> 100	62.1	> 100	19.3	54.9	–	–	97.1	> 100 µM
COc1ccc(/C=C2\CN(C(=O)C(Cl)Cl)C/C(=C\c3ccc(OC)c(OC)c3)C2=O)cc1OC	–	–	0.185	0.549	0.883	–	0.532 µM	3.79	–	–	0.165	0.381	–	–	0.0352	> 100	0.0341	> 100	0.0781	–
CC1(CO)OC1COCc1ccccc1 (stereo not drawn)	–	–	–	> 100	–	> 100	–	> 100	–	–	–	> 100	–	> 100	–	> 100	–	> 100	–	> 100 µM
CCCCCNC(=O)[C@@H]1CCCN2C(=O)CC[C@H](NC(=O)[C@H](Cc3ccc(OP(=O)(O)O)cc3)NC(C)=O)C(=O)N12	> 25	> 25	> 25	> 25	> 25	> 25	–	–	> 25	> 25	> 25	> 25	> 25	> 25	> 25	> 25	> 25	> 25	> 25	> 25 µM

Reference: PubChem BioAssay (NCI)
